Here are results for four molecules from PMC3193528, “Isothermal Titration Calorimetric Studies on the Interaction of the Major Bovine Seminal Plasma Protein, PDC-109 with Phospholipid Membranes” (PLoS ONE, 2011).

Assay [1] deals with T1, PDC-109 (Bos taurus, UniProt P02784).
T1 construct: native, purified from bull seminal plasma; 109 residues, 23-residue N-terminal stretch plus two Fn-II domains; mixture of glycoforms BSP-A1 and BSP-A2; polydisperse aggregate in solution
T1 sequence (P02784 26-134): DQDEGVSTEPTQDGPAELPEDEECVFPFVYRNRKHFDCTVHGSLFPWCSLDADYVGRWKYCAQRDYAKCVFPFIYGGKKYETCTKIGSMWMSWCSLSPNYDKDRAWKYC
Put plainly: isothermal titration calorimetry, one set of sites model. In kind it is binding. The conditions noted are these: read-out: K a×10^-5 (M^-1) (converted). From the text: isothermal titration calorimetry, one set of sites model on PDC-109

Assay [2] addresses T1, PDC-109. Put plainly: isothermal titration calorimetry, two sets of sites model. The class given is binding. To be noted: 25 °C; stronger site of two-site fit (n = 0.9), assigned to micelles; acyl chain of lipid not given; read-out: K a (converted). (Isothermal titration calorimetry measures the heat released or taken up as one component is titrated into another.)

Turning to `CCCCCCCCCCCCCC(=O)OC[C@H](COP(=O)([O-])OCC[N+](C)(C)C)OC(=O)CCCCCCCCCCCCC` [DMPC], the Kd in assay [1] is 2.44 µM. For the molecule `CCCCCCCCCCCCCC(=O)OC[C@H](COP(=O)(O)OCC(O)CO)OC(=O)CCCCCCCCCCCCC` (stereo partly shown) [DMPG], the Kd in assay [1] was 38.5 µM. On the same count and under the same terms, the figure for `CCCCCCCCCCCCCCCC(=O)OC[C@H](COP(=O)([O-])OCC[N+](C)(C)C)OC(=O)CCCCCCCCCCCCCCC` [DPPC] is 7.69 µM. Take Lyso-PC: the Kd in assay [2] is 1.43 µM.
